From US20200281202A1 (priority 2017, published 2020) come the findings set out here.

Structures are written as SMILES.

In the first experiment the test system is Phytophthora infestans. Kind of experiment: microbe, parasite or virus in culture. Conditions: 30 ppm in Rye Agar medium; seven days at 18° C. It is filed as cell-based.
For `Cn1nc(OCC(=O)N2CCC(c3nc(C4=NOC(c5c(Cl)cccc5OS(C)(=O)=O)C4)cs3)CC2)cc1C(F)(F)F` (centres unmarked) [Compound 19], the “control (radial growth) compared to the untreated check” value was 70%.
Take `Cn1nc(C(F)(F)F)cc1OCC(=O)N1CCC(c2nc(C3=NOC(c4c(Cl)cccc4Cl)C3)cs2)CC1` (centres unmarked) [Compound 2]: the “control (radial growth) compared to the untreated check” value is recorded as 70%.

The experiment is the same for the next values; noted with them: Phytophthora infestans, 168 h, read-out: control (radial growth) compared to the untreated check.
Take `Cc1cnc(OCC(=O)N2CCC(c3nc(C4=NOC(c5c(Cl)cc(Cl)cc5Cl)C4)cs3)CC2)c(C(F)(F)F)c1` (centres unmarked) [Compound 83, 2-((5-methyl-3-(trifluoromethyl)pyridin-2-yl)oxy)-1-(4-(4-(5-(2,4,6-trichlorophenyl)-4,5-dihydroisoxazol-3-yl)thiazol-2-yl)piperidin-1-yl)ethan-1-one]: the inhibition of growth at 30 ppm is 70%.
With `Cc1ccc(C(F)(F)F)c(OCC(=O)N2CCC(c3nc(C4OCc5cccc(OS(C)(=O)=O)c5CO4)cs3)CC2)n1` (centres unmarked) [Compound 92, 3-(2-(1-(2-((6-methyl-3-(trifluoromethyl)pyridin-2-yl)oxy)acetyl)piperidin-4-yl)thiazol-4-yl)-1,5-dihydrobenzo[e][1,3]dioxepin-6-yl methanesulfonate], the inhibition of growth at 30 ppm was 70%.
`O=C(CSc1ncc(C(F)(F)F)cc1Cl)N1CCC(c2nc(C3=NOC(c4c(F)cccc4F)C3)cs2)CC1` (centres unmarked) [Compound 65, 2-((3-chloro-5-(trifluoromethyl)pyridin-2-yl)thio)-1-(4-(4-(5-(2,6-difluorophenyl)-4,5-dihydroisoxazol-3-yl)thiazol-2-yl)piperidin-1-yl)ethan-1-one]: the inhibition of growth at 30 ppm came out at 70%.
For `CS(=O)(=O)Oc1cccc2c1COC(c1csc(C3CCN(C(=O)COc4ncccc4C(F)(F)F)CC3)n1)OC2` (centres unmarked) [Compound 91, 3-(2-(1-(2-((3-(trifluoromethyl)pyridin-2-yl)oxy)acetyl)piperidin-4-yl)thiazol-4-yl)-1,5-dihydrobenzo[e][1,3]dioxepin-6-yl methanesulfonate], the inhibition of growth at 30 ppm turned out to be 70%.
Turning to `CS(=O)(=O)Oc1cccc(Cl)c1C1CC(c2csc(C3CCN(C(=O)COc4ncccc4C(F)F)CC3)n2)=NO1` (centres unmarked) [Compound 89, 3-chloro-2-(3-(2-(1-(2-((3-(difluoromethyl)pyridin-2-yl)oxy)acetyl)piperidin-4-yl)thiazol-4-yl)-4,5-dihydroisoxazol-5-yl)phenyl methanesulfonate], the inhibition of growth at 30 ppm came out at 70%.
Take `O=C(CSc1ncccc1C(F)(F)F)N1CCC(c2nc(C3=NOC(c4c(Cl)cc(Cl)cc4Cl)C3)cs2)CC1` (centres unmarked) [Compound 63]: the inhibition of growth at 30 ppm came to 70%.
`O=C(COc1ccc(C(F)(F)F)cn1)N1CCC(c2nc(C3=NOC(c4c(Cl)cccc4Cl)C3)cs2)CC1` (centres unmarked) [Compound 47, 1-(4-(4-(5-(2,6-dichlorophenyl)-4,5-dihydroisoxazol-3-yl)thiazol-2-yl)piperidin-1-yl)-2-((5-(trifluoromethyl)pyridin-2-yl)oxy)ethan-1-one]: the inhibition of growth at 30 ppm came to 70%.
`Cn1ccc(OCC(=O)N2CCC(c3nc(C4=NOC(c5c(Cl)cccc5OS(C)(=O)=O)C4)cs3)CC2)n1` (centres unmarked) [Compound 5, 3-chloro-2-(3-(2-(1-(2-((1-methyl-1H-pyrazol-3-yl)oxy)acetyl)piperidin-4-yl)thiazol-4-yl)-4,5-dihydroisoxazol-5-yl)phenyl methanesulfonate]: the inhibition of growth at 30 ppm stood at 70%.
On the same count and under the same terms, to `CS(=O)(=O)Oc1cccc(Cl)c1C1CC(c2csc(C3CCN(C(=O)COc4cc(C(F)(F)F)ccn4)CC3)n2)=NO1` (centres unmarked) [Compound 46, 3-chloro-2-(3-(2-(1-(2-((4-(trifluoromethyl)pyridin-2-yl)oxy)acetyl)piperidin-4-yl)thiazol-4-yl)-4,5-dihydroisoxazol-5-yl)phenyl methanesulfonate] belongs 70%; to `Cc1cnc(OCC(=O)N2CCC(c3nc(C4=NOC(c5c(Cl)cccc5OS(C)(=O)=O)C4)cs3)CC2)c(C(F)(F)F)c1` (centres unmarked) [Compound 85, 3-chloro-2-(3-(2-(1-(2-((5-methyl-3-(trifluoromethyl)pyridin-2-yl)oxy)acetyl)piperidin-4-yl)thiazol-4-yl)-4,5-dihydroisoxazol-5-yl)phenyl methanesulfonate], 70%; to `Cn1nc(C(F)(F)F)cc1OCC(=O)N1CCC(c2nc(C3=NOC(c4c(F)cccc4F)C3)cs2)CC1` (centres unmarked) [Compound 3, 1-(4-(4-(5-(2,6-difluorophenyl)-4,5-dihydroisoxazol-3-yl)thiazol-2-yl)piperidin-1-yl)-2-((1-methyl-3-(trifluoromethyl)-1H-pyrazol-5-yl)oxy) ethan-1-one], 70%.
Turning to `Cn1nc(OCC(=O)N2CCC(c3nc(C4=NOC(c5c(F)cccc5F)C4)cs3)CC2)cc1C(F)(F)F` (centres unmarked) [Compound 20, 1-(4-(4-(5-(2,6-difluorophenyl)-4,5-dihydroisoxazol-3-yl)thiazol-2-yl)piperidin-1-yl)-2-((1-methyl-5-(trifluoromethyl)-1H-pyrazol-3-yl)oxy) ethan-1-one], the inhibition of growth at 30 ppm turned out to be 70%.
Still for that read-out and setting: to `O=C(COc1ncccc1C(F)(F)F)N1CCC(c2nc(C3OCc4ccccc4CO3)cs2)CC1` [Compound 59, 1-(4-(4-(1,5-dihydrobenzo[e][1,3]dioxepin-3-yl)thiazol-2-yl)piperidin-1-yl)-2-((3-(trifluoromethyl)pyridin-2-yl)oxy)ethan-1-one] belongs 70%; to `Cc1cnc(OCC(=O)N2CCC(c3nc(C4=NOC(c5c(F)cccc5F)C4)cs3)CC2)c(C(F)(F)F)c1` (centres unmarked) [Compound 88, 1-(4-(4-(5-(2,6-difluorophenyl)-4,5-dihydroisoxazol-3-yl)thiazol-2-yl)piperidin-1-yl)-2-((5-methyl-3-(trifluoromethyl)pyridin-2-yl)oxy)ethan-1-one], 70%.
In the case of `Cn1nc(OCC(=O)N2CCC(c3nc(C4=NOC(c5c(F)cccc5F)C4)cs3)CC2)cc1C(F)F` (centres unmarked) [Compound 9], the inhibition of growth at 30 ppm is 70%.
Take `CN(C)C(N(CC(=O)N1CCC(c2nc(C3=NOC(c4c(F)cccc4F)C3)cs2)CC1)c1ccc(C(F)(F)F)cn1)=[N+](C)C` (centres unmarked) [Compound 69]: the inhibition of growth at 30 ppm was found to be 70%.
On the same count and under the same terms, next, `O=C(COc1cccc(C(F)(F)F)n1)N1CCC(c2nc(C3=NOC(c4c(F)cccc4F)C3)cs2)CC1` (centres unmarked) [Compound 72, 1-(4-(4-(5-(2,6-difluorophenyl)-4,5-dihydroisoxazol-3-yl)thiazol-2-yl)piperidin-1-yl)-2-((6-(trifluoromethyl)pyridin-2-yl)oxy)ethan-1-one]: 70%; `O=C(COc1cc(C(F)(F)F)ccn1)N1CCC(c2nc(C3=NOC(c4c(F)cccc4F)C3)cs2)CC1` (centres unmarked) [Compound 43]: 70%; `O=C(COc1ncc(C(F)(F)F)cc1Br)N1CCC(c2nc(C3=NOC(c4c(Cl)cccc4Cl)C3)cs2)CC1` (centres unmarked) [Compound 51, 2-((3-bromo-5-(trifluoromethyl)pyridin-2-yl)oxy)-1-(4-(4-(5-(2,6-dichlorophenyl)-4,5-dihydroisoxazol-3-yl)thiazol-2-yl)piperidin-1-yl)ethan-1-one]: 70%.
Regarding `Cn1nc(C(F)(F)F)cc1OCC(=O)N1CCC(c2nc(C3=NOC(c4c(Cl)cccc4OS(C)(=O)=O)C3)cs2)CC1` (centres unmarked) [Compound 4, 3-chloro-2-(3-(2-(1-(2-((1-methyl-3-(trifluoromethyl)-1H-pyrazol-5-yl)oxy)acetyl)piperidin-4-yl)thiazol-4-yl)-4,5-dihydroisoxazol-5-yl)phenyl methanesulfonate], the inhibition of growth at 30 ppm worked out at 70%.
The same measure, in the same setting: next, `O=C(CNc1ncccc1C(F)(F)F)N1CCC(c2nc(C3=NOC(c4c(Cl)cccc4Cl)C3)cs2)CC1` (centres unmarked) [Compound 82, 1-(4-(4-(5-(2,6-dichlorophenyl)-4,5-dihydroisoxazol-3-yl)thiazol-2-yl)piperidin-1-yl)-2-((3-(trifluoromethyl)pyridin-2-yl)amino)ethan-1-one]: 70%; `O=C(COc1ncc(C(F)(F)F)cc1Br)N1CCC(c2nc(C3=NOC(c4c(Cl)cc(Cl)cc4Cl)C3)cs2)CC1` (centres unmarked) [Compound 54, 2-((3-bromo-5-(trifluoromethyl)pyridin-2-yl)oxy)-1-(4-(4-(5-(2,4,6-trichlorophenyl)-4,5-dihydroisoxazol-3-yl)thiazol-2-yl)piperidin-1-yl)ethan-1-one]: 70%.
As for `CS(=O)(=O)Oc1cccc(Cl)c1C1CC(c2csc(C3CCN(C(=O)COc4ccc(C(F)(F)F)cn4)CC3)n2)=NO1` (centres unmarked) [Compound 48, 3-chloro-2-(3-(2-(1-(2-((5-(trifluoromethyl)pyridin-2-yl)oxy)acetyl)piperidin-4-yl)thiazol-4-yl)-4,5-dihydroisoxazol-5-yl)phenyl methanesulfonate], the inhibition of growth at 30 ppm was 70%.
As for `Cn1ccc(OCC(=O)N2CCC(c3nc(C4=NOC(c5c(F)cccc5F)C4)cs3)CC2)n1` (centres unmarked) [Compound 1, 1-(4-(4-(5-(2,6-difluorophenyl)-4,5-dihydroisoxazol-3-yl)thiazol-2-yl)piperidin-1-yl)-2-((1-methyl-1H-pyrazol-3-yl)oxy)ethan-1-one], the inhibition of growth at 30 ppm was determined as 70%.
For the compound `Cc1cnc(OCC(=O)N2CCC(c3nc(C4=NOC(c5c(Cl)cccc5Cl)C4)cs3)CC2)c(C(F)(F)F)c1` (centres unmarked) [Compound 84, 1-(4-(4-(5-(2,6-dichlorophenyl)-4,5-dihydroisoxazol-3-yl)thiazol-2-yl)piperidin-1-yl)-2-((5-methyl-3-(trifluoromethyl)pyridin-2-yl)oxy)ethan-1-one], the inhibition of growth at 30 ppm is 70%.
On the same count and under the same terms, next, `O=C(COc1cccc(C(F)(F)F)n1)N1CCC(c2nc(C3=NOC(c4c(Cl)cccc4Cl)C3)cs2)CC1` (centres unmarked) [Compound 70, 1-(4-(4-(5-(2,6-dichlorophenyl)-4,5-dihydroisoxazol-3-yl)thiazol-2-yl)piperidin-1-yl)-2-((6-(trifluoromethyl)pyridin-2-yl)oxy)ethan-1-one]: 70%; `Cc1cccnc1OCC(=O)N1CCC(c2nc(C3=NOC(c4c(Cl)cccc4OS(C)(=O)=O)C3)cs2)CC1` (centres unmarked) [Compound 78, 3-chloro-2-(3-(2-(1-(2-((3-methylpyridin-2-yl)oxy)acetyl)piperidin-4-yl)thiazol-4-yl)-4,5-dihydroisoxazol-5-yl)phenyl methanesulfonate]: 70%.
